Laboratory results published in ChEMBL document CHEMBL1201862, “PubChem BioAssay data set” (2004).
Active and inactive are the calls of the source. For most assays here, no stated cut-off is given here; in the data, actives have a measured EC50 and inactives only a lower limit.

What was measured:
H4 = test: Luminescence Cell-Based Dose Response HTS to Identify Activators of 5'UTR Stem-Loop Driven Prion Protein mRNA Translation in H4 Neuroglioblastoma Cells. [Related pubchem assays: 1829 (Project Summary), 1814 (Primary HTS)]; type: functional; settings: Homo sapiens
[1] = Luminescence Cell-Based Dose Confirmation HTS to Identify Activators of 5'UTR Stem-Loop Driven Alpha-Synuclein mRNA Translation in H4 Neuroglioblastoma Cells. [Related pubchem assays: 1829 (Project Summary), 1814 (Primary HTS)]; type: functional
[2] = Luminescence Cell-Based Dose Response HTS to Identify Activators of Luciferase Translation or Activity in H4 […] Cells. [Related pubchem assays: 1829 (Project Summary), 1814 (Primary HTS)]; type: functional
[3] = biological target: T1, Corticotropin-releasing factor receptor 2/Corticotropin-releasing factor-binding protein (Homo sapiens, UniProt P24387+Q13324); test: activators of CRF receptor 2 with binding protein – uHTS hits, confirmation (AID 602473); type: functional; settings: read-out: EC50_Mean
T1 sequence (Q13324 whole entry): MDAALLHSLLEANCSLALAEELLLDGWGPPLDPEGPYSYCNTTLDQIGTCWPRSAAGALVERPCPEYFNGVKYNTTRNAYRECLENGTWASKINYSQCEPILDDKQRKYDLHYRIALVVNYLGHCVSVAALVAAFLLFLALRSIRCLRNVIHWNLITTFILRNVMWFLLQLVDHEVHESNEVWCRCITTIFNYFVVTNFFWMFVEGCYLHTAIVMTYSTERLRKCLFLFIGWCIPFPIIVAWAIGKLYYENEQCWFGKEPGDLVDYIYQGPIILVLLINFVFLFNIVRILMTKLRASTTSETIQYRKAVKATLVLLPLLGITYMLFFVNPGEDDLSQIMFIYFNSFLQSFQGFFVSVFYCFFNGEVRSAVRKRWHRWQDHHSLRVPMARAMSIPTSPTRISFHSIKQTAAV
T1 sequence (P24387 whole entry): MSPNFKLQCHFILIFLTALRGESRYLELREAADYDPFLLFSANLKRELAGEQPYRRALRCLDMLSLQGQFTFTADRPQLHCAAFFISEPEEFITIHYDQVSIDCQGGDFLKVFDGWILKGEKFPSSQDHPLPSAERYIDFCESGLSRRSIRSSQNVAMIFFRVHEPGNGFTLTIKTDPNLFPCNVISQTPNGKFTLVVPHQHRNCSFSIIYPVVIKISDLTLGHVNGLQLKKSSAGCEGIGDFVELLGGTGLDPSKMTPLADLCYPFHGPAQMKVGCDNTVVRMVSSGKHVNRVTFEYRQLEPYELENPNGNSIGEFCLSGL

[4] = biological target: T1, Corticotropin-releasing factor receptor 2/Corticotropin-releasing factor-binding protein; test: Dose Response confirmation of uHTS hits for small molecule antagonists of the CRF-binding protein and CRF-R2 receptor complex.; type: functional; settings: read-out: IC50_Mean
INS1 = test: beta cell apoptosis inhibitors, cytokine rescue, dose response, luminescence, retest (AID 449756); type: functional, cell-based; settings: Rattus norvegicus;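 further: cell death triggered by IL-1 beta plus TNF-alpha plus IFN-gamma mixture; protective hits raise ATP signal compared with cytokine alone wells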
[5] = biological target: T2, Heat shock factor protein 1 (Mus musculus, UniProt P38532); test: inhibition of MG132-induced HSE-luciferase signal, confirmation, cell-based, NIH3T3, luminescence, dose retest (AID 2382); type: functional;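 further: NIH3T3 fibroblasts with HSF1-driven luciferase reporter stressed by proteasome inhibitor MG132; luminescence from HSF1-driven luciferase expression after 8 hours of MG132 stress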
T2 sequence (P38532 whole entry): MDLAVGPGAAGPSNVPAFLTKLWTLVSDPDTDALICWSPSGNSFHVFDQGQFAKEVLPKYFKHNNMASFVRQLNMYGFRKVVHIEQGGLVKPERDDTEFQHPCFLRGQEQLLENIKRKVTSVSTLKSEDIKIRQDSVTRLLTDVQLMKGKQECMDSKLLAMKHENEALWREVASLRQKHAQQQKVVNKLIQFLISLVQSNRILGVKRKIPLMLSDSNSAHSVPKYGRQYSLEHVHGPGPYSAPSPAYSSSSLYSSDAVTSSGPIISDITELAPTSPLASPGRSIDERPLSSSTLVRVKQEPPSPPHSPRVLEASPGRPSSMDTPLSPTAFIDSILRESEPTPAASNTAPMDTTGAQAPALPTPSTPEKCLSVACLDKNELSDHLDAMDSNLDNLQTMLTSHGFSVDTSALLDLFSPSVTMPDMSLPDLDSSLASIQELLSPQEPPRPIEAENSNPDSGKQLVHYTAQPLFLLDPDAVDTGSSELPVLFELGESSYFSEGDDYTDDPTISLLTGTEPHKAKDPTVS

Protein RecA = biological target: T3, Protein RecA (Mycobacterium tuberculosis, UniProt P9WHJ3); test: Fluorescence Cell-Free Homogeneous Dose Retest to Identify Inhibitors of RecA-Intein Splicing Activity. [Related pubchem assays (depositor defined):AID2097, AID2223, AID489010, AID492950]; type: functional
T3 sequence (P9WHJ3 whole entry): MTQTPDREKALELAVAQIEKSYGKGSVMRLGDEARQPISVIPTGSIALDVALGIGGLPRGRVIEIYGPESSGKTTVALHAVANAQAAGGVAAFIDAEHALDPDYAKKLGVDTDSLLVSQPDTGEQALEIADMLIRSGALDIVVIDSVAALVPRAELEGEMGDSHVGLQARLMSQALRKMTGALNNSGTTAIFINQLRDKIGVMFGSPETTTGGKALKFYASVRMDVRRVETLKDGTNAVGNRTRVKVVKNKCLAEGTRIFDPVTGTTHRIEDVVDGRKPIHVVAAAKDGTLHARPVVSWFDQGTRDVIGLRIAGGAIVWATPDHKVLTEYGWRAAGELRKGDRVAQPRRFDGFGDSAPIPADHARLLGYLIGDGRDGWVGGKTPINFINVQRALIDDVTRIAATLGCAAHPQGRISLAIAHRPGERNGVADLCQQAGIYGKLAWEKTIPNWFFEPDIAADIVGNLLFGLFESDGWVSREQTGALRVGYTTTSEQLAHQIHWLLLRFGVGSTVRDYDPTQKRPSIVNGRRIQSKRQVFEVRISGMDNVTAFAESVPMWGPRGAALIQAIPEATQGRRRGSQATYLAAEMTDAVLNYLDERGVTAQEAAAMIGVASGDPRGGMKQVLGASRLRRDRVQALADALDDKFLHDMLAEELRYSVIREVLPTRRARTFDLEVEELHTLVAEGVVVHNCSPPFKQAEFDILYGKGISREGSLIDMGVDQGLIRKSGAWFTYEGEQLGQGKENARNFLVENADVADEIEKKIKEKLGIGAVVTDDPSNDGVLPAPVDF

[6] = biological target: T4, Replicative DNA helicase DnaB (Mycobacterium tuberculosis, UniProt P9WMR3); test: DnaB intein splicing inhibitors, dose response, biochemical, cell-free fluorescence (AID 449749); type: functional
T4 sequence (P9WMR3 whole entry): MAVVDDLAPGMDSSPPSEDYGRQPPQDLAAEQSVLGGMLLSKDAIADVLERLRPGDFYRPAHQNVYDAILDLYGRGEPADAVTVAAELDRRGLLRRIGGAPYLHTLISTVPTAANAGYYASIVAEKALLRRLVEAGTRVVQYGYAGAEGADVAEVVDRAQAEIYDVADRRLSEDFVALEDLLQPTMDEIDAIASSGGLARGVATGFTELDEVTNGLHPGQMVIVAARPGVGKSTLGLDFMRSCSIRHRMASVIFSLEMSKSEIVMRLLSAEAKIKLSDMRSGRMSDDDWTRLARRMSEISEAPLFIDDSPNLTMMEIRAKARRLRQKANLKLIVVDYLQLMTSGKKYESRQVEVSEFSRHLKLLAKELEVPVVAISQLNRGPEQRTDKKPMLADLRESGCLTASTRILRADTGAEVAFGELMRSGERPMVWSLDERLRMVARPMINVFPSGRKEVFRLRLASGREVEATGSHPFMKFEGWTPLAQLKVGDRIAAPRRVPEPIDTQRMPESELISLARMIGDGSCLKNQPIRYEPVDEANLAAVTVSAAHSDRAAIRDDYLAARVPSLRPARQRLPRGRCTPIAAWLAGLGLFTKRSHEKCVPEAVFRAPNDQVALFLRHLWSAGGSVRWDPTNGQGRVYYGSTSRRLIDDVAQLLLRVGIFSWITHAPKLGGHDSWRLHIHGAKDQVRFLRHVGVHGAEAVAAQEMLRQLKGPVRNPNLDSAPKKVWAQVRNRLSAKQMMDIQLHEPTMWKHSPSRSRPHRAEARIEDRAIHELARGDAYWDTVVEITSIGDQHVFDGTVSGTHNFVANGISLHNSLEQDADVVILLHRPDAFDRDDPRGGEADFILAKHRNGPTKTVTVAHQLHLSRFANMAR

SMILES: CCOc1ccc(C(=O)OCC(=O)c2c(N)n(C)c(=O)n(C)c2=O)cc1OCC
- EC50 (H4): 46.7 µM (inconclusive)
- EC50 [1]: > 120 µM (not active)
- EC50 [2]: > 120 µM (not active)

SMILES: COc1ccc(-c2ccnc(SCC(=O)N3CCN(c4ccccc4)CC3)n2)cc1
- EC50 [3]: > 53 µM (inactive)
- IC50 [4]: > 47.1 µM (inactive)
- AC50 (INS1): > 260 µM (inactive)

SMILES: COc1cc(/C=N/NC(=S)NC2CC3CC2C2C=CCC32)ccc1O (centres undefined)
- EC50 (H4): > 120 µM (not active)
- EC50 [1]: > 120 µM (not active)
- EC50 [2]: 69.7 µM (active)

SMILES: O=C(Nc1ccccc1NC(=O)c1csnn1)c1csnn1
- EC50 [5]: > 195 µM (not active)

SMILES: CNCC(O)CN(c1ccccc1)c1ccccc1 (centres undefined)
- EC50 (Protein RecA): 10.8 µM (active)
- AC50 [6]: 34.3 µM (active)

SMILES: COc1cccc(OC(=O)CSc2nnc(-c3ccccc3Br)o2)c1
- EC50 (Protein RecA): 5.7 µM (active)
- AC50 [6]: 3.09 µM (active)

SMILES: COc1ccc(N2CCN(c3ccc(NC(=O)NN)cc3)CC2)cc1
- EC50 [5]: > 195 µM (not active)

SMILES: CCOC(=O)C1=C(c2ccccc2)OC(N)=C(C#N)C1C(C)C (centres undefined)
- EC50 (H4): > 120 µM (not active)
- EC50 [1]: > 120 µM (not active)
- EC50 [2]: > 120 µM (not active)

SMILES: Cc1cc(C)nc(N=C(N)Nc2ccc3c(c2)OCCO3)n1
- EC50 [5]: > 195 µM (not active)

SMILES: CC(=O)Nc1ccc(SCC(=O)N2CCN(S(=O)(=O)c3ccccc3)CC2)cc1
- EC50 [5]: > 195 µM (not active)

SMILES: CCOC(=O)Cc1n[nH]c2c1C(c1ccoc1)C(C#N)=C(N)O2 (centres undefined)
- EC50 (Protein RecA): 3.42 µM (active)
- AC50 [6]: 18.4 µM (active)

SMILES: Cc1nn(-c2ccccc2)c(C)c1NC(=O)COc1ccc(Br)cc1Cl
- AC50 (INS1): 34.2 µM (active)

SMILES: Cc1cccc(N(C(=O)c2nsc(Cl)c2Cl)C(C(=O)NC2CCCC2)c2ccc(O)cc2)c1 (centres undefined)
- EC50 (H4): > 120 µM (not active)
- EC50 [1]: 0.548 µM (active)
- EC50 [2]: 1.09 µM (active)

SMILES: c1ccc(Cc2nnc3sc(-c4cccs4)nn23)cc1
- EC50 [5]: > 195 µM (not active)

SMILES: COc1ccc(/C(O)=C\C=N\c2cc(C)on2)c(OC)c1
- EC50 [5]: > 195 µM (not active)

SMILES: C=CCn1c(SCC(=O)N2CCc3ccccc3C2)nc2sc(C)c(C)c2c1=O
- EC50 [5]: > 195 µM (not active)

SMILES: CC(C)c1nnc(NC(=O)C2CCN(C(=O)c3ccco3)CC2)s1
- EC50 [5]: > 195 µM (not active)

SMILES: CC(=O)c1ccc(NC(=O)CCc2c(C)nc3ncnn3c2C)cc1
- EC50 (H4): 37.1 µM (active)
- EC50 [1]: 73.6 µM (active)
- EC50 [2]: 8.11 µM (active)

SMILES: COC(=O)c1ccc(Cn2nnc3c(O)nc(C4CCN(S(=O)(=O)c5ccc(F)cc5)CC4)nc32)cc1
- EC50 [5]: > 195 µM (not active)

SMILES: O=C(Cn1nnc2ccccc21)NNC(=S)NC1CCCCC1
- EC50 [5]: > 195 µM (not active)

SMILES: CCOC(=O)c1ccc(Nc2[nH]cnc3ncnc2-3)cc1
- EC50 [5]: > 195 µM (not active)

SMILES: CC(=O)c1ccc(NC(=O)c2cccc(S(=O)(=O)N3CCN(C)CC3)c2)cc1
- EC50 (H4): 20.7 µM (active)
- EC50 [1]: 15.5 µM (active)
- EC50 [2]: 40.6 µM (active)

SMILES: COc1cc(OC)cc(C2C(C#N)=C(N)Oc3[nH]nc(-c4cccnc4)c32)c1 (centres undefined)
- EC50 (Protein RecA): 2.13 µM (active)
- AC50 [6]: 18 µM (active)

SMILES: O=C(c1ccc(Cl)cc1)n1cnc2ccccc21
- EC50 (Protein RecA): 8.13 µM (active)
- AC50 [6]: 7.49 µM (active)

SMILES: Cc1ccc(C(=O)N2CCCC(Nc3ccc(F)cc3)C2)cc1C (centres undefined)
- EC50 [5]: > 195 µM (not active)

SMILES: Cc1ccc(NC(=O)Cn2nnc3ccccc32)cc1
- EC50 (H4): 111 µM (active)
- EC50 [1]: 17.5 µM (active)
- EC50 [2]: > 120 µM (not active)

SMILES: CCOc1ccccc1N1CCN(C(=O)c2ccc(-c3ccc(OC(C)=O)cc3)cc2)CC1
- EC50 (Protein RecA): 58.4 µM (active)
- AC50 [6]: 2.31 µM (active)
